# Measured values published in article PMC11340245, “Studies of Protein Binding to Biomimetic Membranes Using a Group of Uniform Materials Based on Organic Salts Derived From 8-Anilino-1-naphthalenesulfonic Acid” (Applied Spectroscopy, 2024).
# Experiment: Thermal stability by thermogravimetric analysis (TGA)
# Type: physicochemical
# Settings: heated from 25 to 595 °C, ramp rate 10 °C min^–1
# Procedure: The thermal stability of [N4444][ANS] and [P4444][ANS] was investigated using a TA Discovery TGA 550 instrument. GUMBOS were heated from 25 to 595 °C using a ramp rate of 10 °C min^–1. The melting points of these compounds were also determined using a MEL-TEMP apparatus. Membrane partition and competitive binding assays were performed on a BioTek Cytation 3 imaging reader.
# Thermal behaviors of [N4444][ANS] and [P4444][ANS] GUMBOS were further investigated using TGA. Figure S14 and Table S2 (Supplemental Material) present the weight loss curves and temperatures at which GUMBOS weight was reduced by 50% (T50%), respectively.
row,T50% (half weight loss temperature),Compound
1,308 ºC,CCCC[N+](CCCC)(CCCC)CCCC.O=S(=O)([O-])c1cccc2cccc(Nc3ccccc3)c12 [[N4444][ANS]]
2,422 ºC,CCCC[P+](CCCC)(CCCC)CCCC.O=S(=O)([O-])c1cccc2cccc(Nc3ccccc3)c12 [[P4444][ANS]]
